In brackets after ≈: the same amount, converted by molar mass. Like-named read-outs stand apart in the source and are kept apart here. Each block holds one compound with its values, some of them ahead of it.
Columns and labels:
[1] = target: T1, recombinant HIV-1 protease (Human immunodeficiency virus type 1 group M subtype B, UniProt P04585); experiment: Evaluation of enzyme inhibition constant Ki; assay type: biochemical
T1 construct: measured using a recombinant HIV-1 protease
Experimental: The synthesized peptide substrate having a sequence of H-Lys-Ala-Arg-Val-Tyr-Phe (4-NO2)-Glu-Ala-Nle-NH2 (SEQ ID NO. 1) was used in this experiment. The enzyme reaction was measured using a reversed phase HPLC by determining the C-terminal peptide fraction produced by cleavage just behind Tyr in the synthesized substrate which is obtained by reacting the following composition for 15 min. at 37° C. and stopping the reaction by the addition of 1N HCl (75 μl).
Composition of reaction mixture
Recombinant HIV-1 protease enzyme solution 10 μl
0.5 mM synthetic substrate aqueous solution 10 μl
DMSO Inhibitor solution 5 μl
0.2 M MES solution 25 μl
(1 M NaCl, 2 mM EDTA-2Na, 2 mM DTT, pH 5.5)
Column: Waters Nova-pak C18 (3.9×75 mm)
Eluent: A; water (0.1% TFA)
B; acetonitrile (0.1% TFA)
Flow rate: 2 ml/min isocratic; 10% B solution
Detection: Fluorescence 305 nm, excitation 275 nm

[2] = target: T1, recombinant HIV-1 protease; experiment: HIV protease inhibition activity (enzyme activity inhibition rate); assay type: biochemical; settings: for inhibition at 0.05 µM: read-out: Enzyme activity inhibition rate (%) (addition concentration of 50 nM)
Experimental: The protease activity was measured using a recombinant HIV-1 protease (see Biochemistry, 250 (9)-264 (1990)) and a synthesized peptide substrate. The inhibition rate was calculated by determining a peptide fragment generated by cleavage between Tyr-Pro of the synthesized substrate after the reaction of 60 min at 37° C. using a reversed phase HPLC in the presence of the test compounds in various concentrations (see, for example, Japanese Patent Application Laid-open No. 170722/1993).
Examples of the evaluation results of the HIV protease inhibition activity of the tripeptide compound of the present invention by the above-described method is shown in Table 1. […] The concentration of the test compounds in Table 1 represents the final concentration in the reaction mixture.

CEM-SS cell = experiment: Cytotoxicity in HIV virus non-infected CEM-SS cells (XTT method); assay type: cell-based; settings: six days, highest concentration 1.0 μg/ml
Experimental: (§1) EP 0751145 A2). On a 96-well micro titre plate, the test compounds were added to the culture medium in various concentrations, then the HIV infected CEM-SS cell was added and incubated for six days at 37° C. using a CO2 incubator. The number of the living cells was then measured by a XTT method. On the other hand, in order to examine the cytotoxicity of the test compounds, the test compounds were added in various concentrations and the HIV virus non-infected cell was incubated under similar conditions. As the reference group, the HIV infected CEM-SS cell was incubated without the addition of the test compounds. Moreover, the HIV virus non-infected cell was incubated without the addition of the test compound as the control group. The anti-virus activity was evaluated in a concentration in which the cytotoxic effect caused by the HIV infected virus in the above HIV infected cell group was inhibited 50 percent (EC50, 50% effective concentration), and the cytotoxicity was evaluated in a concentration in which the cytotoxic effect by the addition of the test compound in the HIV virus non-infected cell group occurred at 50 percent (TC50, 50% cytotoxic concentration) respectively.

[3] = tested on: HIV virus strain HIV-1 IIIB; experiment: Anti-HIV activity in HIV infected CEM-SS cells (XTT method); assay type: cell-based; settings: Human immunodeficiency virus 1, 144 h, HIV-1 IIIB infected CEM-SS cell, six days at 37° C.
Experimental: as §1

[4] = 50 nM final concentration of test compound, 60 min at 37° C.

Compound: CC1(C)SCN(C(=O)[C@@H](O)[C@H](Cc2ccccc2)NC(=O)[C@H](CC(N)=O)NC(=O)OCc2ccccc2)[C@@H]1C(=O)NCc1ccccc1 [Example 1, (R)-N-benzyl-3-{(2S,3S)-3-[N-(benzyloxycarbonyl)-L-asparaginyl]amino-2-hydroxy-4-phenylbutanoyl}-5,5-dimethyl-1,3-thiazolidine-4-carboxamide]
- Ki [1]: 19 pM
- inhibition at 0.05 µM [2, 4]: 96%

Compound: Cc1ccccc1CNC(=O)[C@H]1N(C(=O)[C@@H](O)[C@H](Cc2ccccc2)NC(=O)[C@H](CC(N)=O)NC(=O)OCc2ccccc2)CSC1(C)C [Example 3, (R)-N-(2-methylbenzyl)-3-{(2S,3S)-3-[N-(benzyloxycarbonyl)-L-asparaginyl]amino-2-hydroxy-4-phenylbutanoyl}-5,5-dimethyl-1,3-thiazolidine-4-carboxamide]
- Ki [1]: 16 pM
- inhibition at 0.05 µM [2, 4]: 100%

Compound: Cc1ccccc1CNC(=O)[C@H]1N(C(=O)[C@@H](O)[C@H](Cc2ccccc2)NC(=O)[C@H](CC(N)=O)NC(=O)c2cc(=O)c3ccccc3o2)CSC1(C)C [Example 6, (R)-N-(2-methylbenzyl)-3-{(2S,3S)-3-[N-(2-chromonecarbonyl)-L-asparaginyl]amino-2-hydroxy-4-phenylbutanoyl}-5,5-dimethyl-1,3-thiazolidine-4-carboxamide]
- Ki ([1]; reversible tight-binding inhibitor model, test compound 1-100 nM, 15 min at 37° C., pH 5.5, read-out: Enzyme inhibition constant Ki): 1.7 pM
- Enzyme activity inhibition rate (%) (addition concentration of 50 nM) [2, 4]: 98.4%

Compound: Cc1ccccc1CNC(=O)[C@H]1N(C(=O)[C@@H](O)[C@H](Cc2ccccc2)NC(=O)[C@H](CC(N)=O)NC(=O)c2cc3ccccc3o2)CSC1(C)C [Example 7, (R)-N-(2-methylbenzyl)-3-{(2S,3S)-3-[N-(2-benzofurancarbonyl)-L-asparaginyl]amino-2-hydroxy-4-phenylbutanoyl}-5,5-dimethyl-1,3-thiazolidine-4-carboxamide]
- Ki [1]: 4.8 pM
- inhibition at 0.05 µM [2, 4]: 91.2%

Compound: CC[C@H](NC(=O)OC)C(=O)N[C@@H](Cc1ccccc1)[C@H](O)C(=O)N1CSC(C)(C)[C@H]1C(=O)NCc1ccccc1C [Example 28, (R)-N-(2-methylbenzyl)-3-{(2S,3S)-2-hydroxy-3-[(S)-2-(methoxycarbonyl)aminobutanoyl]amino-4-phenylbutanoyl}-5,5-dimethyl-1,3-thiazolidine-4-carboxamide]
- Ki [1]: 242 pM
- inhibition at 0.05 µM [2, 4]: 93.6%

Compound: COCC(=O)N[C@H](C(=O)N[C@@H](Cc1ccccc1)[C@H](O)C(=O)N1CSC(C)(C)[C@H]1C(=O)NCc1ccccc1C)C(C)C [Example 31, (R)-N-(2-methylbenzyl)-3-{(2S,3S)-2-hydroxy-3-[(S)-2-(methoxyacetyl)amino-3-methylbutanoyl]amino-4-phenylbutanoyl}-5,5-dimethyl-1,3-thiazolidine-4-car boxamide]
- inhibition at 0.05 µM [2, 4]: 89.6%

Compound: CCOCC(=O)N[C@H](C(=O)N[C@@H](Cc1ccccc1)[C@H](O)C(=O)N1CSC(C)(C)[C@H]1C(=O)NCc1ccccc1C)C(C)C [Example 32, (R)-N-(2-methylbenzyl)-3-{(2S,3S)-2-hydroxy-3-[(S)-2-(ethoxyacetyl)amino-3-methylbutanoyl]amino-4-phenylbutanoyl}-5,5-dimethyl-1,3-thiazolidine-4-carb oxamide]
- inhibition at 0.05 µM [2]: 96.4%

Compound: CC(=O)N[C@H](C(=O)N[C@@H](Cc1ccccc1)[C@H](O)C(=O)N1CSC(C)(C)[C@H]1C(=O)NCc1ccccc1C)C(C)C [Example 33, (R)-N-(2-methylbenzyl)-3-{(2S,3S)-2-hydroxy-3-[(S)-2-acetylamino-3-methylbutanoyl]amino-4-phenylbutanoyl}-5,5-dimethyl-1,3-thiazolidine-4-carboxamide]
- inhibition at 0.05 µM [2, 4]: 89.8%

Compound: CC[C@H](NC(C)=O)C(=O)N[C@@H](Cc1ccccc1)[C@H](O)C(=O)N1CSC(C)(C)[C@H]1C(=O)NCc1ccccc1C [Example 34, (R)-N-(2-methylbenzyl)-3-{(2S,3S)-2-hydroxy-3-[(S)-2-acetylaminobutanoyl]amino-4-phenylbutanoyl}-5,5-dimethyl-1,3-thiazolidine-4-carboxamide]
- inhibition at 0.05 µM [2, 4]: 88.9%

Compound: Cc1ccccc1CNC(=O)[C@H]1N(C(=O)[C@@H](O)[C@H](Cc2ccccc2)NC(=O)[C@@H](NS(C)(=O)=O)C(C)C)CSC1(C)C [Example 37, (R)-N-(2-methylbenzyl)-3-{(2S,3S)-2-hydroxy-3-[(S)-2-methanesulfonylamino-3-methylbutanoyl]amino-4-phenylbutanoyl}-5,5-dimethyl-1,3-thiazolidine-4-car boxamide]
- inhibition at 0.05 µM [2, 4]: 70.1%

Compound: CC[C@H](NS(C)(=O)=O)C(=O)N[C@@H](Cc1ccccc1)[C@H](O)C(=O)N1CSC(C)(C)[C@H]1C(=O)NCc1ccccc1C [Example 38, (R)-N-(2-methylbenzyl)-3-{(2S,3S)-2-hydroxy-3-[(S)-2-methanesulfonylaminobutanoyl]amino-4-phenylbutanoyl}-5,5-dimethyl-1,3-thiazolidine-4-carboxamide]
- inhibition at 0.05 µM [2, 4]: 76%

Compound: COC(=O)N[C@H](C(=O)N[C@@H](Cc1ccccc1)[C@H](O)C(=O)N1CSC(C)(C)[C@H]1C(=O)NCc1ccccc1C)[C@@H](C)O [Example 39, (R)-N-(2-methylbenzyl)-3-{(2S,3S)-2-hydroxy-3-[N-(methoxycarbonyl)-L-threonyl]amino-4-phenylbutanoyl}-5,5-dimethyl-1,3-thiazolidine-4-carboxamide]
- inhibition at 0.05 µM [2, 4]: 84.6%

Compound: COC(=O)N[C@@H](CC(N)=O)C(=O)N[C@@H](Cc1ccccc1)[C@H](O)C(=O)N1CSC(C)(C)[C@H]1C(=O)NCc1ccccc1C [Example 40, (R)-N-(2-methylbenzyl)-3-{(2S,3S)-2-hydroxy-3-[N-(methoxycarbonyl)-L-asparaginyl]amino-4-phenylbutanoyl}-5,5-dimethyl-1,3-thiazolidine-4-carboxamide]
- inhibition at 0.05 µM [2, 4]: 94.3%

- EC50 [3]: 0.033 µg/mL (≈ 0.0458 µM)
Compound: CC(C)c1nc(CN(C)C(=O)N[C@H](C(=O)N[C@@H](Cc2ccccc2)C[C@H](O)[C@H](Cc2ccccc2)NC(=O)OCc2cncs2)C(C)C)cs1 [Ritonavir, reference compound]
- Cytotoxicity TC50 (CEM-SS cell): > 1.0 µg/mL

- Ki [1]: 212 pM
Compound: CC(C)(C)NC(=O)[C@H]1N(C(=O)[C@@H](O)[C@H](Cc2ccccc2)NC(=O)[C@H](CC(N)=O)NC(=O)OCc2ccccc2)CSC1(C)C [reference compound]

Compound: (R)-N-(2-methylbenzyl)-3-{(2S,3S)-3-[N-(3-benzylphenoxyacetyl)-L-valyl]amin o-2-hydroxy-4-phenylbutanoyl}-5,5-dimethyl-1,3-thiazolidine-4-carboxamide [Example 17]
- Enzyme activity inhibition rate (%) (addition concentration of 50 nM) [2, 4]: 97.1%

Reference: US6291432A (Japan Energy Corporation, priority 1996, dated 2001)
